Experimental data taken from patent US8633242B2, “Benzylidene indanones and processes for preparation and use thereof” (Council of Scientific and Industrial Research, priority 2011, dated 2014).

Legend:
[1] = test system: HCT (Colon); assay: Sulphorhodamine B cytotoxicity assay, HCT; format: cell-based, human; parameters: key to Human cancer cell lines IC50, HCT (Colon): Inactive: inactive, if IC50 > 100 μM; details: for IC50 / Human cancer cell lines IC50, HCT (Colon): SRB assay, 48 hours incubation; for IC50: read-out: Human cancer cell lines IC50, HCT (Colon)
Protocol: (§1) The benzylidene analogues were evaluated by Sulphorhodamine B Assay as per reported method [Skehan et al., J. Natl. Cancer Inst. 1990, 82, 1107]. The human cancer cell lines procured from National Cancer institute, Frederick, U.S.A. were used in present study. Cells were grown in tissue culture flasks in complete growth medium (RPMI-1640 medium with 2 mM glutamine, pH 7.4 supplemented with 10% fetal bovine serum, 100 μg/ml streptomycin and 100 units/ml penicillin) in a carbon dioxide incubator (37° C., 5% CO2, 90% RH). The cells at subconfluent stage were harvested from the flask by treatment with trypsin (0.05% in PBS (pH 7.4) containing 0.02% EDTA). Cells with viability of more than 98%, as determined by trypan blue exclusion, were used for determination of cytotoxicity. The cell suspension required concentration of cells was prepared in complete growth medium. Stock solution of 2×10^−2 M of compounds were prepared in DMSO and further dilution was carried out complete growth medium containing 50 μg/ml of gentamycin to obtained working test solution of required concentration. In vitro cytotoxicity against various human cancer cell lines was determined using 96-well cell culture plates. The 100 μl of cell suspension was added to each well of the 96-well cell culture plates. The cells were allowed to grow in CO2 incubator (37° C., 5% CO2, 90% RH) for 24 hours. The test materials in complete growth medium (100 μl) were added after 24 hours incubation to the wells containing cell suspension. The plates were further incubated for 48 hours (37° C. in an atmosphere of 5% CO2 and 90% relative humidity) in a carbon dioxide incubator after addition of test material and then the cell growth was stopped by gently layering trichloroacetic acid (50% TCA, 50 μl) on top of the medium in all the wells. The plates were incubated at 4° C. for one hour to fix the cells attached to the bottom of the wells. The liquid of all the wells was gently pipetted out and discarded. The plates were washed five times with distilled water to remove TCA, growth medium low molecular weight metabolites, serum proteins etc. and air-dried. Cell growth was measured by staining with sulforhodamine B dye. The adsorbed dye was dissolved in Tris-HCl Buffer (100 μl/well, 0.01M, pH 10.4) and plates were gently stirred for 10 minutes on a mechanical stirrer. The optical density (OD) was recorded on ELISA reader at 540 nm. 5-Fluorouracil, Paclitaxel (Taxol), Mitomycin-c and Adriamycin were used as positive controls.

[2] = test system: THP-1 (Leukemia); assay: Sulphorhodamine B cytotoxicity assay, THP-1; format: cell-based, human; parameters: key to Human cancer cell lines IC50, THP-1 (Leukemia): Inactive: inactive, if IC50 > 100 μM; details: for IC50 / Human cancer cell lines IC50, THP-1 (Leukemia): SRB assay, 48 hours incubation; for IC50: read-out: Human cancer cell lines IC50, THP-1 (Leukemia)
Protocol: as §1

[3] = test system: HeLa (Cervix); assay: Sulphorhodamine B cytotoxicity assay, HeLa; format: cell-based, human; parameters: key to Human cancer cell lines IC50, HeLa (Cervix): Inactive: inactive, if IC50 > 100 μM; details: for IC50 / Human cancer cell lines IC50, HeLa (Cervix): SRB assay, 48 hours incubation; for IC50: read-out: Human cancer cell lines IC50, HeLa (Cervix)
Protocol: as §1

[4] = test system: A549 (Lung); assay: Sulphorhodamine B cytotoxicity assay, A549; format: cell-based, human; parameters: key to Human cancer cell lines IC50, A549 (Lung): Inactive: inactive, if IC50 > 100 μM; details: for IC50 / Human cancer cell lines IC50, A549 (Lung): SRB assay, 48 hours incubation; for IC50: read-out: Human cancer cell lines IC50, A549 (Lung)
Protocol: as §1

[5] = test system: PC-3 (prostate); assay: Sulphorhodamine B cytotoxicity assay, PC-3; format: cell-based, human; parameters: key to Human cancer cell lines IC50, PC-3 (prostate): Inactive: inactive, if IC50 > 100 μM; details: for Human cancer cell lines IC50, PC-3 (prostate) / IC50: SRB assay, 48 hours incubation; for IC50: Homo sapiens, read-out: Human cancer cell lines IC50, PC-3 (prostate)
Protocol: as §1

[6] = test system: MCF-7 (Breast cancer); assay: Sulphorhodamine B cytotoxicity assay, MCF-7; format: cell-based, human; parameters: key to Human cancer cell lines IC50, MCF-7 (Breast cancer): Inactive: inactive, if IC50 > 100 μM; details: for IC50: read-out: Human cancer cell lines IC50, MCF-7 (Breast cancer)
Protocol: as §1

[7] = test system: DU-145 (prostate); assay: Sulphorhodamine B cytotoxicity assay, DU-145; format: cell-based, human; parameters: key to Human cancer cell lines IC50, DU-145 (prostate): Inactive: inactive, if IC50 > 100 μM; details: SRB assay, 48 hours incubation; for IC50: Homo sapiens, DU-145, read-out: Human cancer cell lines IC50, DU-145 (prostate)
Protocol: as §1

[8] = test system: tubulin protein; assay: In-vitro tubulin polymerisation inhibition assay; format: biochemical; parameters: key to Tubulin polymerisation inhibition IC50: Inactive: inactive, if IC50 > 10 μM; details: for IC50: read-out: Tubulin polymerisation inhibition IC50; for IC50 / Tubulin polymerisation inhibition IC50: tubulin 3 mg/mL, 37° C., 340 nm, 1 h
Protocol: The tubulin polymerization experiment was performed using ‘assay kit’ (Cytoskeleton USA) following manufacturer's protocol based on the procedure described by of Shelanski et al. (1973) and Lee et al. (1977). Briefly, tubulin protein (3 mg/mL) in tubulin polymerization buffer (80 mM PIPES, pH 6.9, 2 mM MgCl2, 0.5 mM EGTA, 1 mM GTP and 15% glycerol) was placed in pre-warmed 96-well microtiter plates at 37° C. in the presence of test compounds with variable concentrations. All samples were mixed well and polymerization was monitored kinetically at 340 nm every min for 1 h using a Spectramax plate reader. Podophyllotoxin and etoposide were used as positive controls and DMSO as negative control. The IC50 value was determined from dose-dependent analysis and is defined as the concentration that inhibits the rate of polymerization by 50%.
Podophyllotoxin and etoposide, standard tubulin polymerisation inhibitors were used as positive controls.

[9] = Homo sapiens, MCF7, SRB assay, 48 hours incubation

Compound | IC50 ([4]; Homo sapiens, A549) | Human cancer cell lines IC50, PC-3 (prostate) [5] | IC50 ([1]; Homo sapiens) | IC50 ([2]; Homo sapiens, THP-1) | IC50 [6, 9] | Human cancer cell lines IC50, DU-145 (prostate) [7] | IC50 [5] | IC50 [7] | Human cancer cell lines IC50, HeLa (Cervix) [3] | Tubulin polymerisation inhibition IC50 [8] | melting point | other results
O=c1[nH]cc(F)c(=O)[nH]1 [5-Fluorouracil, reference compound] | – | – | – | – | – | – | – | – | – | – | – | inhibition at 20 µM ([1]; Homo sapiens, positive control at 20 μM): 65%; inhibition at 20 µM ([2]; Homo sapiens, THP-1, positive control at 20 μM): 74%; inhibition at 20 µM ([3]; Homo sapiens, HeLa, positive control at 20 μM): 70%
COc1cc([C@@H]2c3cc4c(cc3[C@@H](O[C@@H]3O[C@@H]5CO[C@@H](C)O[C@H]5[C@H](O)[C@H]3O)[C@H]3COC(=O)[C@H]23)OCO4)cc(OC)c1O [Etoposide, reference compound] | 5.4 µM | Inactive | 6.5 µM | < 1 µM | 1.5 µM | Inactive | – | – | – | – | – | IC50 ([3]; Homo sapiens, HeLa): < 1 µM; IC50 [8]: […]
COc1cc([C@@H]2c3cc4c(cc3[C@H](O)[C@H]3COC(=O)[C@H]23)OCO4)cc(OC)c1OC [Podophyllotoxin, reference compound] | < 1 µM | – | < 1 µM | < 1 µM | < 1 µM | – | 91.5 µM | 91.5 µM | – | – | – | IC50 ([3]; Homo sapiens, HeLa): < 1 µM; IC50 [8]: […]
COc1cc(C2/C(=C/c3ccc(OC)c(OC)c3OC)C(=O)c3cc(OC)c(OC)c(OC)c32)cc(OC)c1OC (stereo not shown) [Compound 15, 2-(2″,3″,4″-trimethoxybenzylidene), 3-(3′,4′,5′-trimethoxyphenyl)-4,5,6-trimethoxy, indan-1-one] | 93 µM | – | 79.6 µM | – | 8.88 µM | Inactive | 85 µM | – | Inactive | Inactive | 163 to 165 °C | Human cancer cell lines IC50, THP-1 (Leukemia) [2]: Inactive; anticancer activity against human breast cancer cells (MCF-7), in words [6]: potent anticancer activity
COc1cc(C2/C(=C/c3ccc([N+](=O)[O-])cc3)C(=O)c3cc(OC)c(OC)c(OC)c32)cc(OC)c1OC (stereo not shown) [Compound 11, 2-(4″-nitrobenzlidene),3-(3′,4′,5′-trimethoxyphenyl)-4,5,6-trimethoxy indan-1-one] | – | Inactive | 97.3 µM | 89.5 µM | 88.1 µM | Inactive | – | – | Inactive | Inactive | 190 to 192 °C | Human cancer cell lines IC50, A549 (Lung) [4]: Inactive
COc1cc(C2/C(=C/c3ccc(F)cc3)C(=O)c3cc(OC)c(OC)c(OC)c32)cc(OC)c1OC (stereo not shown) [Compound 18, 2-(4″-fluorobenzylidene), 3-(3′,4′,5′-trimethoxyphenyl)-4,5,6-trimethoxy indan-1-one] | 26.9 µM | – | – | 2.88 µM | 0.68 µM | – | 38.6 µM | 54.1 µM | – | – | 156 to 158 °C | Human cancer cell lines IC50, HCT (Colon) [1]: Inactive; activity against leukemia cell lines (THP), in words [2]: potent activity; IC50 ([3]; Homo sapiens, HeLa): 66.5 µM; anticancer activity against human breast cancer cells (MCF-7), in words [6]: potent anticancer activity; inhibition of tubulin polymerisation, in words [8]: strong inhibition; IC50 [8]: 0.73 µM
COc1cc(C2/C(=C/c3ccc(OCc4ccccc4)cc3)C(=O)c3cc(OC)c(OC)c(OC)c32)cc(OC)c1OC (stereo not shown) [Compound 22, 2-(4″-benzyloxybenzylidene), 3-(3′,4′,5′-trimethoxyphenyl)-4,5,6-trimethoxy indan-1-one] | – | – | – | – | – | – | 78.9 µM | 78.9 µM | Inactive | Inactive | 188 to 190 °C | Human cancer cell lines IC50, A549 (Lung) [4]: Inactive; Human cancer cell lines IC50, HCT (Colon) [1]: Inactive; Human cancer cell lines IC50, THP-1 (Leukemia) [2]: Inactive; Human cancer cell lines IC50, MCF-7 (Breast cancer) ([6]; SRB assay, 48 hours incubation): Inactive
COc1cc(C2/C(=C/c3cccc4c3OCO4)C(=O)c3cc(OC)c(OC)c(OC)c32)cc(OC)c1OC (stereo not shown) [Compound 17, 2-(2″,3″-methylenedioxybenzlidene), 3-(3′,4′,5′-trimethoxyphenyl)-4,5,6-trimethoxy indan-1-one] | 82.2 µM | Inactive | 45.9 µM | – | 57.2 µM | Inactive | – | – | Inactive | Inactive | 180 to 182 °C | Human cancer cell lines IC50, THP-1 (Leukemia) [2]: Inactive
CO[C@@]12[C@H](COC(N)=O)C3=C(C(=O)C(C)=C(N)C3=O)N1C[C@@H]1N[C@@H]12 [Mitomycin-c, reference compound] | – | – | – | – | – | – | – | – | – | – | – | % Inhibition, PC-3 (Prostate) ([5]; positive control at 1 μM): 61%
COc1cccc2c1C(=O)c1c(O)c3c(c(O)c1C2=O)C[C@@](O)(C(=O)CO)C[C@@H]3O[C@H]1C[C@H](N)[C@H](O)[C@H](C)O1 [Adriamycin, reference compound] | – | – | – | – | – | – | – | – | – | – | – | inhibition at 1 µM ([6]; Homo sapiens, MCF7, positive control at 1 μM): 65%
COc1ccccc1/C=C1\C(=O)c2cc(OC)c(OC)c(OC)c2C1c1cc(OC)c(OC)c(OC)c1 (stereo not shown) [Compound 19, 2-(2″-methoxybenzylidene), 3-(3′,4′,5′-trimethoxyphenyl)-4,5,6-trimethoxy indan-1-one] | 62.6 µM | Inactive | – | 29.3 µM | – | – | – | 21.5 µM | Inactive | Inactive | 191 to 192 °C | Human cancer cell lines IC50, HCT (Colon) [1]: Inactive
CC(=O)O[C@H]1C(=O)[C@@]2(C)[C@H]([C@H](OC(=O)c3ccccc3)[C@]3(O)C[C@H](OC(=O)[C@H](O)[C@@H](NC(=O)c4ccccc4)c4ccccc4)C(C)=C1C3(C)C)[C@]1(OC(C)=O)CO[C@@H]1C[C@@H]2O [Paclitaxel, reference compound] | – | – | – | – | – | – | – | – | – | – | – | inhibition at 1 µM ([4]; Homo sapiens, A549, positive control at 1 μM): 69%
